Experiments:
giant foxtail [1] = experiment: Test A pre-/postemergence herbicide test; type: in vivo, Setaria faberi
In short: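 Visual injury rating on a 0–100 scale (0 no effect, 100 complete control) versus untreated controls, about ten days after treatment in greenhouse. Pre: directed soil spray onto seeded sandy loam. Post: spray to runoff on plants 2–10 cm tall at one- to two-leaf stage.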

kochia = experiment: Test C pre-/postemergence herbicide test; type: in vivo, Kochia scoparia
In short: (§1)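 Pre- and postemergence application, solvent/surfactant formulation; post at 1- to 4-leaf stage (2–18 cm). Greenhouse 12–14 d. Visual rating vs controls, 0 = no effect, 100 = complete control.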

giant foxtail [2] = experiment: Test B pre-/postemergence herbicide test; type: in vivo, Setaria faberi
In short: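 Test chemicals in a non-phytotoxic solvent mixture with surfactant were applied preemergence to seeded species and postemergence to plants 2-18 cm tall (1- to 4-leaf stage); rice and barnyardgrass were also tested in a flooded paddy at the 2-leaf stage. Visual rating versus controls after 13-15 days in greenhouse, scale 0 (no effect) to 100 (complete control).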

pigweed = experiment: Test C pre-/postemergence herbicide test; type: in vivo, Amaranthus retroflexus
In short: as §1

corn = experiment: Test C pre-/postemergence herbicide test; type: in vivo, Zea mays
In short: as §1

cocklebur = experiment: Test C pre-/postemergence herbicide test; type: in vivo, Xanthium strumarium; details: for Cocklebur plant response rating: Preemergence, 500 g ai/ha, scale 0 to 100, 0 no effect, 100 complete control
In short: as §1

yellow nutsedge = experiment: Test C pre-/postemergence herbicide test; type: in vivo, Cyperus esculentus
In short: as §1

ducksalad = experiment: Test C flooded paddy test; type: in vivo, Heteranthera limosa; details: for Plant response rating, Ducksalad: 500 g ai/ha, visual rating after 12 to 14 days
barnyardgrass = experiment: Test C flooded paddy test; type: in vivo, Echinochloa crus-galli; details: for Plant response rating, Barnyardgrass: 500 g ai/ha, visual rating after 12 to 14 days
In short: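 Injury scored visually against controls on a 0 (no effect) to 100 (complete control) scale, 12 to 14 days after treatment in greenhouse. Flooded paddy plants treated at 2-leaf stage; postemergence plants at 1- to 4-leaf stage, 2 to 18 cm tall.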

[3] = 125 g ai/ha, scale 0 (no effect) to 100 (complete control), visual, 12 to 14 days, preemergence
[4] = 250 g ai/ha, scale 0-100, preemergence
[5] = 500 g ai/ha, scale 0 to 100 (0 no effect, 100 complete control), visual, 12 to 14 days, preemergence
[6] = 125 g ai/ha, 0 = no effect, 100 = complete control, preemergence
[7] = 500 g ai/ha, visual rating, 0 = no effect, 100 = complete control, preemergence
[8] = 62 g ai/ha, preemergence, scale 0 to 100
[9] = 125 g ai/ha, scale 0 to 100 (0 no effect, 100 complete control)
[10] = 250 g ai/ha, scale of 0 to 100, 0 is no effect, 100 is complete control
[11] = scale 0 to 100 (0 no effect, 100 complete control)
[12] = 62 g ai/ha, scale 0 to 100 (0 no effect, 100 complete control)
[13] = 125 g ai/ha, visual rating, scale 0 (no effect) to 100 (complete control), postemergence
[14] = postemergence, 500 g ai/ha, scale 0 to 100, 0 is no effect, 100 is complete control
[15] = 250 g ai/ha, scale 0 to 100 (0 no effect, 100 complete control), visual, 12 to 14 days, preemergence
[16] = Preemergence, 500 g ai/ha, scale 0 to 100, 0 no effect, 100 complete control
[17] = 125 g ai/ha, scale of 0 to 100, 0 is no effect, 100 is complete control

SMILES: CCNC(=O)c1cccc(NC(=O)c2sc(C(C)(C)C)nc2CC)n1 [Compound 213]
- Foxtail, Giant plant response rating (giant foxtail [1]; Postemergence, 500 g ai/ha, 0 to 100 scale, 0 no effect, 100 complete control): 20
- Plant response rating, Foxtail, Giant (giant foxtail [1]; Postemergence, 2000 g ai/ha, 0 to 100 scale, 0 no effect, 100 complete control): 25
- Foxtail, Giant plant response rating (giant foxtail [1]; Preemergence, 2000 g ai/ha, visual rating, 0 to 100 scale (0 no effect, 100 complete control)): 85
- Foxtail, Giant plant response rating (giant foxtail [1]; preemergence, 500 g ai/ha, visual injury, 0 to 100 scale (0 no effect, 100 complete control)): 60
- Plant response rating, Kochia (kochia; [3]): 85
- Plant response rating, Kochia (kochia; [4]): 100
- Plant response rating, Kochia (kochia; [5]): 100
- Foxtail, Giant plant response rating (0 to 100 scale) (giant foxtail [2]; [6]): 20
- Plant response rating, Foxtail, Giant (giant foxtail [2]; [7]): 90
- Foxtail, Giant plant response rating (giant foxtail [2]; postemergence, 125 g ai/ha, visual rating, scale 0 (no effect) to 100 (complete control)): 0
- Foxtail, Giant plant response rating (giant foxtail [2]; postemergence, 500 g ai/ha, visual rating, scale 0 (no effect) to 100 (complete control)): 30
- Plant response rating, Pigweed (pigweed; [8]): 80
- Plant response rating, Pigweed (pigweed; [3]): 100
- Plant response rating, Pigweed (pigweed; [4]): 100
- Plant response rating, Pigweed (pigweed; [5]): 100
- Plant response rating, Corn (corn; [8]): 0
- Plant response rating, Corn (corn; [3]): 0
- Plant response rating, Corn (corn; [4]): 30
- Plant response rating, Corn (corn; [5]): 40
- Plant response rating, Cocklebur (cocklebur; [4]): 100
- Cocklebur plant response rating (cocklebur): 100
- Plant response rating, Nutsedge, Yellow (yellow nutsedge; [8]): 0
- Plant response rating, Nutsedge, Yellow (yellow nutsedge; [3]): 0
- Plant response rating, Nutsedge, Yellow (yellow nutsedge; [4]): 0
- Plant response rating, Nutsedge, Yellow (yellow nutsedge; [5]): 0

SMILES: CCn1nc(C(C)(C)C)cc1C(=O)Nc1cc(C(=S)N(C)C)ccn1 [Compound 334]
- Plant response rating, Kochia (kochia; [8]): 100
- Plant response rating, Kochia (kochia; [3]): 100
- Plant response rating, Kochia (kochia; [4]): 100
- Ducksalad plant response rating (ducksalad; 62 g ai/ha, scale 0 to 100): 75
- Ducksalad plant response rating (ducksalad; [9]): 85
- Ducksalad plant response rating (ducksalad; [10]): 85
- Plant response rating, Ducksalad (ducksalad; [11]): 90
- Barnyardgrass plant response rating (barnyardgrass; [12]): 70
- Barnyardgrass plant response rating (barnyardgrass; [9]): 90
- Barnyardgrass plant response rating (barnyardgrass; [10]): 95
- Plant response rating, Barnyardgrass (barnyardgrass; [11]): 95
- Plant response rating (0 to 100 scale), Foxtail, Giant (giant foxtail [2]; 125 g ai/ha, 0 is no effect, 100 is complete control, preemergence): 90
- Foxtail, Giant plant response rating (giant foxtail [2]; [13]): 10
- Plant response rating, Foxtail, Giant (giant foxtail [2]; [7]): 100
- Foxtail, Giant plant response rating (giant foxtail [2]; [14]): 60
- Plant response rating, Pigweed (pigweed; [8]): 100
- Plant response rating, Pigweed (pigweed; [3]): 100
- Plant response rating, Pigweed (pigweed; [4]): 100
- Plant response rating, Corn (corn; [8]): 0
- Plant response rating, Corn (corn; [3]): 20
- Plant response rating, Corn (corn; [4]): 50
- Plant response rating, Cocklebur (cocklebur; [8]): 30
- Plant response rating, Cocklebur (cocklebur; [3]): 60
- Plant response rating, Cocklebur (cocklebur; [4]): 70
- Plant response rating, Nutsedge, Yellow (yellow nutsedge; 31 g ai/ha, scale 0 to 100, last section of Table C, preemergence): 5
- Plant response rating, Nutsedge, Yellow (yellow nutsedge; [8]): 10
- Plant response rating, Nutsedge, Yellow (yellow nutsedge; [3]): 40
- Plant response rating, Nutsedge, Yellow (yellow nutsedge; [4]): 55

SMILES: CCNC(=O)c1cccc(NC(=O)c2cc(C3(C)CC3)nn2CC)c1 [Compound 306]
- Plant response rating, Kochia (kochia; [8]): 0
- Plant response rating, Kochia (kochia; [3]): 80
- Plant response rating, Kochia (kochia; [4]): 100
- Plant response rating, Kochia (kochia; [5]): 100
- Ducksalad plant response rating (ducksalad; 62 g ai/ha, scale 0 to 100): 50
- Ducksalad plant response rating (ducksalad; [9]): 80
- Ducksalad plant response rating (ducksalad; [10]): 80
- Plant response rating, Ducksalad (ducksalad; [11]): 90
- Barnyardgrass plant response rating (barnyardgrass; [12]): 0
- Barnyardgrass plant response rating (barnyardgrass; [9]): 45
- Barnyardgrass plant response rating (barnyardgrass; [10]): 55
- Plant response rating, Barnyardgrass (barnyardgrass; [11]): 70
- Foxtail, Giant plant response rating (0 to 100 scale) (giant foxtail [2]; [6]): 40
- Foxtail, Giant plant response rating (giant foxtail [2]; [13]): 10
- Plant response rating, Foxtail, Giant (giant foxtail [2]; [7]): 100
- Foxtail, Giant plant response rating (giant foxtail [2]; [14]): 40
- Plant response rating, Pigweed (pigweed; [8]): 100
- Plant response rating, Pigweed (pigweed; [3]): 100
- Plant response rating, Pigweed (pigweed; [4]): 100
- Plant response rating, Pigweed (pigweed; [5]): 100
- Plant response rating, Corn (corn; [8]): 5
- Plant response rating, Corn (corn; [3]): 10
- Plant response rating, Corn (corn; [4]): 20
- Plant response rating, Corn (corn; [5]): 50
- Plant response rating, Cocklebur (cocklebur; [8]): 0
- Plant response rating, Cocklebur (cocklebur; [3]): 0
- Plant response rating, Cocklebur (cocklebur; [4]): 0
- Cocklebur plant response rating (cocklebur): 5
- Plant response rating, Nutsedge, Yellow (yellow nutsedge; [8]): 0
- Plant response rating, Nutsedge, Yellow (yellow nutsedge; [3]): 0
- Plant response rating, Nutsedge, Yellow (yellow nutsedge; [4]): 10
- Plant response rating, Nutsedge, Yellow (yellow nutsedge; [5]): 40

SMILES: CCN(C)C(=O)c1ccc(F)c(NC(=O)C2CC(C(C)(C)C)=NN2CC)c1 (racemic) [Compound 307]
- Plant response rating, Kochia (kochia; [8]): 100
- Plant response rating, Kochia (kochia; [3]): 100
- Plant response rating, Kochia (kochia; [4]): 100
- Plant response rating, Kochia (kochia; [5]): 100
- Ducksalad plant response rating (ducksalad; 62 g ai/ha, scale 0 to 100): 60
- Ducksalad plant response rating (ducksalad; [9]): 70
- Ducksalad plant response rating (ducksalad; [10]): 90
- Plant response rating, Ducksalad (ducksalad; [11]): 90
- Barnyardgrass plant response rating (barnyardgrass; [12]): 30
- Barnyardgrass plant response rating (barnyardgrass; [9]): 65
- Barnyardgrass plant response rating (barnyardgrass; [10]): 80
- Plant response rating, Barnyardgrass (barnyardgrass; [11]): 95
- Foxtail, Giant plant response rating (0 to 100 scale) (giant foxtail [2]; [6]): 90
- Foxtail, Giant plant response rating (giant foxtail [2]; [13]): 20
- Plant response rating, Foxtail, Giant (giant foxtail [2]; [7]): 90
- Foxtail, Giant plant response rating (giant foxtail [2]; [14]): 30
- Plant response rating, Pigweed (pigweed; [8]): 100
- Plant response rating, Pigweed (pigweed; [3]): 100
- Plant response rating, Pigweed (pigweed; [4]): 100
- Plant response rating, Pigweed (pigweed; [5]): 100
- Plant response rating, Corn (corn; [8]): 0
- Plant response rating, Corn (corn; [3]): 20
- Plant response rating, Corn (corn; [4]): 30
- Plant response rating, Corn (corn; [5]): 45
- Plant response rating, Cocklebur (cocklebur; [8]): 0
- Plant response rating, Cocklebur (cocklebur; [3]): 30
- Plant response rating, Cocklebur (cocklebur; [4]): 35
- Cocklebur plant response rating (cocklebur): 75
- Plant response rating, Nutsedge, Yellow (yellow nutsedge; [8]): 5
- Plant response rating, Nutsedge, Yellow (yellow nutsedge; [3]): 20
- Plant response rating, Nutsedge, Yellow (yellow nutsedge; [4]): 50
- Plant response rating, Nutsedge, Yellow (yellow nutsedge; [5]): 50

SMILES: CCN(C)C(=O)c1cccc(NC(=O)c2cc(C(C)(C)C)nn2CC)c1 [Compound 48]
- Plant response rating (0 = no effect, 100 = complete control), Kochia (kochia; 62 g ai/ha, preemergence): 10
- Plant response rating, Kochia (kochia; [3]): 60
- Plant response rating, Kochia (kochia; [15]): 80
- Kochia plant response rating (kochia; [16]): 100
- Ducksalad plant response rating (ducksalad; 16 g ai/ha, scale 0 to 100): 0
- Ducksalad plant response rating (ducksalad; 31 g ai/ha, scale 0 to 100): 0
- Ducksalad plant response rating (ducksalad; [12]): 20
- Ducksalad plant response rating (ducksalad; [17]): 40
- Barnyardgrass plant response rating (barnyardgrass; 16 g ai/ha, scale 0 to 100): 0
- Barnyardgrass plant response rating (barnyardgrass; 31 g ai/ha, scale 0 to 100): 0
- Barnyardgrass plant response rating (barnyardgrass; [12]): 0
- Barnyardgrass plant response rating (barnyardgrass; [17]): 0
- Foxtail, Giant plant response rating (giant foxtail [2]; Postemergence, 125 g ai/ha, scale 0 (no effect) to 100 (complete control)): 20
- Plant response rating, Foxtail, Giant (giant foxtail [2]; Postemergence, 500 g ai/ha, visual rating after 13 to 15 days, scale 0 (no effect) to 100 (complete control)): 30
- Foxtail, Giant plant response rating (giant foxtail [2]; Preemergence, 500 g ai/ha, scale 0 to 100): 90
- Plant response rating, Foxtail, Giant (giant foxtail [2]; preemergence, 125 g ai/ha, 0 to 100 scale, 0 is no effect, 100 is complete control): 70
- Plant response rating (0 = no effect, 100 = complete control), Pigweed (pigweed; 62 g ai/ha, preemergence): 100
- Plant response rating, Pigweed (pigweed; [3]): 100
- Plant response rating, Pigweed (pigweed; [15]): 100
- Pigweed plant response rating (pigweed; [16]): 100
- Plant response rating (0 = no effect, 100 = complete control), Corn (corn; 62 g ai/ha, preemergence): 0
- Plant response rating, Corn (corn; [3]): 0
- Plant response rating, Corn (corn; [15]): 0
- Corn plant response rating (corn; [16]): 0
- Plant response rating (0 = no effect, 100 = complete control), Cocklebur (cocklebur; 62 g ai/ha, preemergence): 0
- Plant response rating, Cocklebur (cocklebur; [3]): 0
- Plant response rating, Cocklebur (cocklebur; [15]): 0
- Cocklebur plant response rating (cocklebur): 10
- Plant response rating (0 = no effect, 100 = complete control), Nutsedge, Yellow (yellow nutsedge; 62 g ai/ha, preemergence): 0
- Plant response rating, Nutsedge, Yellow (yellow nutsedge; [3]): 0
- Plant response rating, Nutsedge, Yellow (yellow nutsedge; [15]): 10
- Nutsedge, Yellow plant response rating (yellow nutsedge; [16]): 30

From patent US20060069132A1, “Azolecarboxamide herbicides” (priority 2004, published 2006)
